Columns and labels:
M-current = molecular target: T1, M-current (Rattus norvegicus, UniProt O88943+O88944); experiment: Blockade of native M-current in SCG neurons (voltage clamp, intact ganglia); assay type: cell-based; conditions: rat sympathetic neurons; read-out: KD for TEA blockade of native M-current
T1 construct: from tissue
Description: Method: Recordings of the M-current in sympathetic neurons in intact ganglia were performed at room temperature as described previously (Wang and McKinnon, 1995). The standard extracellular recording solution was: NaCl (133 mM, KCl (4.7 mM), NaH2PO4 (1.3 mM), NaHCO3 (16.3 mM), CaCl2 (2 mM), MgCl2 (1.2 mM) and glucose (1.4 g/liter), bubbled with 95% O2-5% CO2 to give pH 7.2-7.4.
A. Blockade of M-current in SCG neurons by XE991. Holding potential was −30 mV and step potential was −50 mV for 1 second. The shift in holding current following drug application is due to the inhibition of M-current activated at the holding potential.
Maximal block of native M-current was 93±2%. Data points are averages and error bars represent s.e.m.

KCNQ2 + KCNQ3 = molecular target: T2, KCNQ2 + KCNQ3 (UniProt O43526+O88944, DEL417-446); experiment: Blockade of KCNQ2+KCNQ3 channels expressed in Xenopus oocytes; assay type: cell-based, human KCNQ2, rat KCNQ3
T2 construct: Full-length KCNQ2 cDNAs were amplified from adult human brain cDNA; Multiple full-length cDNA clones were amplified in independent PCR reactions from rat SCG cDNA; expressed in transfected cells; host or cells: Xenopus oocytes injected with cRNA
Description: (§1) Method: Full-length KCNQ2 cDNAs were amplified from adult human brain cDNA using the following primers ([…], […]) with the Expand Fidelity enzyme mixture (Boehringer Mannheim, Indianapolis). […] This region is also alternatively spliced in the KCNQ2 cDNA clone described by Biervert et al. (1998). Preparation, injection of cRNA and recording from oocytes was performed at room temperature as described previously (Dixon et al. 1996). The standard extracellular recording solution contained: 82 mM NaCl, 2 mM KCl, 1.8 mM CaCl2, 1 mM MgCl2, and 5 mM Na-HEPES (pH 7.6). Data collection and analysis were performed using pClamp software (Axon Instruments, Foster City, Calif.).
Holding potential was −60 mV and the cell was repetitively depolarized to −30 mV for 1 minute to reach steady-state blockade. Tail currents were recorded at −50 mV.
IC50 values are all expressed in μM, mean±s.e.m. In cases where the IC50 values were greater than 100 μM the exact value is not reported due to limited solubility in the drug.

KCNQ2 = KCNQ2 (Homo sapiens, UniProt O43526, DEL417-446); experiment: Blockade of KCNQ2 channels expressed in Xenopus oocytes; assay type: cell-based; design: Full-length KCNQ2 cDNAs were amplified from adult human brain cDNA; expressed in transfected cells; host or cells: Xenopus oocytes injected with cRNA; conditions: homomultimeric KCNQ2, oocytes; Hill coefficient set to unity; read-out: KD for TEA block of KCNQ2 channels
Description: as §1
IC50 values are all expressed in μM, mean±s.e.m.

hKCNQ2 potassium channel = molecular target: T3, hKCNQ2 potassium channel (Homo sapiens, UniProt O43526, DEL417-446); experiment: Membrane potential-evoked fluorescence (FLIPR, DiBAC) in HEK 293E cells stably expressing hKCNQ2; assay type: cell-based; conditions: FIG. 7
T3 construct: Full-length hKCNQ2 cDNAs were amplified from adult human brain cDNA; expressed in transfected cells; host or cells: 293 EBNA (HEK 293E) cells, episomal plasmid pm3AR-hKCNQ2-1, hygromycin B selection
Description: The ability of KCNQ2 modulators to alter membrane potential was assessed using a fluorescence imaging plate reader (FLIPR). Cultured HEK 293E cells expressing hKCNQ2 channels are plated on poly-D-lysine-coated 96-well Costar microplates (#3603) at 300,000-750,000 cells/ml and allowed to reach confluence in DMEM (with 10% FBS and 250 ug/ml hygromycin B) at 37° C. and 5% CO2. After reaching confluence, growth medium is removed, replaced with a standard Hank's balanced salt solution containing 5 uM dibac(4)3, bis-oxonol (Molecular Probes # B-438) at 37° C. The cell plate is then placed in the recording chamber (equilibrated to 37° C.) of a fluorescence imaging plate reader (FLIPR; Molecular Devices) along with two drug plates (one containing standard Hank's balanced salt solution+dibac and the other containing standard Hank's balanced salt solution+dibac+test compound at various experimental concentrations).
These cells were loaded with the voltage-sensitive fluorescent dye, DiBAC, that distributes across cell membranes in a voltage-dependent manner. As cells depolarize (become more positive inside), more dye enters the cells and an increase in fluorescence occurs.
In FIG. 7, the relative effects of several M-current modulators on the flourescence of HEK 293E cells stably expressing the hKCNQ2 potassium channel is shown. These cells were loaded with the voltage-sensitive fluorescent dye, DiBAC, that distributes across cell membranes in a voltage-dependent manner. As cells depolarize, more dye enters the cells and an increase in fluorescence occurs. Conversely, as cells hyperpolarize (become more negative inside), more dye leaves the cells and a decrease in fluorescence occurs.

Compound	Kd (M-current) [mM]	Kd (KCNQ2 + KCNQ3; co-injection of KCNQ2 and KCNQ3 mRNAs, read-out: KD for TEA block of KCNQ2+KCNQ3 channels) [mM]	Hill coefficient of TEA block of KCNQ2+KCNQ3 channels (KCNQ2 + KCNQ3; dose response fitted with Hill equation)	Kd (KCNQ2) [mM]	Relative effect on fluorescence / membrane potential (hKCNQ2 potassium channel; 3 μM)	Relative effect on fluorescence / membrane potential (hKCNQ2 potassium channel; 100 μM)
CC[N+](CC)(CC)CC [TEA, tetraethylammonium]	6.1	3.5 ± 0.7	0.82±0.03	0.16 ± 0.02	–	–
Nc1ccc(CC2(Cc3ccc(N)cc3)C(=O)N(c3ccccc3)c3ccccc32)cc1 [X7315]	–	–	–	–	no effect	apparent membrane hyperpolarization
O=C1c2ccccc2C(Cc2ccnc(F)c2)(Cc2ccnc(F)c2)c2ccccc21 [XR543]	–	–	–	–	more membrane depolarization than linopirdine	–

From patent publication US20040175691A1, “Use of the KCNQ2 and KCNQ3 genes for the discovery of agents useful in the treatment of neurological disorders” (priority 1998, published 2004)
